Results from paper PMC11398567, “Structures of Native Doublet Microtubules from Trichomonas vaginalis Reveal Parasite-Specific Proteins as Potential Drug Targets” (Research Square, 2024).

Target: T1, TvFAP40 (Trichomonas vaginalis, UniProt A2DSS2)
T1 construct: gene TVAG_347810; native full-length protein in doublet microtubules isolated from parasite flagella; C-terminal residue Tyr377; head domain 1-145, coiled-coil tail 149-361; ligand in head domain
T1 sequence (A2DSS2 1-377): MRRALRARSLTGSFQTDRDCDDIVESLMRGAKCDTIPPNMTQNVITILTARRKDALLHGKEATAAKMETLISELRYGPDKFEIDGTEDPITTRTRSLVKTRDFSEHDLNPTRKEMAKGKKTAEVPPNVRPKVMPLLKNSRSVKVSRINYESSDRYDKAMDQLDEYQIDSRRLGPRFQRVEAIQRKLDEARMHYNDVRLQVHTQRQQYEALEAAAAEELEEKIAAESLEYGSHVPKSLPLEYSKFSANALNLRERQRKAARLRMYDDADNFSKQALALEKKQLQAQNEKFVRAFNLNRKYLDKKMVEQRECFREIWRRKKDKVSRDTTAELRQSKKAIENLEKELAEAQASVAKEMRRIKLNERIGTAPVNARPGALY
Test: cryo-EM structure of native doublet microtubules
Assay type: binding
Settings: co-purified endogenous ligand, putatively assigned from map density; positively charged pocket of head domain; likely metal cation nearby
Excerpt: cryo-EM structure of native doublet microtubules on TvFAP40 | consistent with bonding to a non-planar six-membered ring.

SMILES: O=P(O)(O)O[C@H]1[C@H](OP(=O)(O)O)[C@@H](OP(=O)(O)O)[C@H](OP(=O)(O)O)[C@@H](OP(=O)(O)O)[C@H]1OP(=O)(O)O [IP6]
- cryo-EM structure of native doublet microtubules: consistent with bonding to a non-planar six-membered ring. Together these features suggested an inositol polyphosphate
